Assay results taken from paper PMC11866022, “Long-Chain Cyclic Arylguanidines as Multifunctional Serotonin Receptor Ligands with Antiproliferative Activity” (ACS Omega, 2025).

What was measured:
5-HT6 = molecular target: T1, 5-HT6 (Homo sapiens, UniProt P50406); assay: Functional cAMP assay (LANCE Ultra), 5-HT6; format: cell-based; details: Table 3, unit inferred, agonist mode
T1 construct: expressed in transfected cells; host or cells: HEK293

CYP2D6 = molecular target: T2, CYP2D6 (Homo sapiens, UniProt P10635); assay: P450-Glo assay, CYP2D6; format: in vitro ADME
T2 construct: purchased Promega
T2 sequence (P10635 whole entry): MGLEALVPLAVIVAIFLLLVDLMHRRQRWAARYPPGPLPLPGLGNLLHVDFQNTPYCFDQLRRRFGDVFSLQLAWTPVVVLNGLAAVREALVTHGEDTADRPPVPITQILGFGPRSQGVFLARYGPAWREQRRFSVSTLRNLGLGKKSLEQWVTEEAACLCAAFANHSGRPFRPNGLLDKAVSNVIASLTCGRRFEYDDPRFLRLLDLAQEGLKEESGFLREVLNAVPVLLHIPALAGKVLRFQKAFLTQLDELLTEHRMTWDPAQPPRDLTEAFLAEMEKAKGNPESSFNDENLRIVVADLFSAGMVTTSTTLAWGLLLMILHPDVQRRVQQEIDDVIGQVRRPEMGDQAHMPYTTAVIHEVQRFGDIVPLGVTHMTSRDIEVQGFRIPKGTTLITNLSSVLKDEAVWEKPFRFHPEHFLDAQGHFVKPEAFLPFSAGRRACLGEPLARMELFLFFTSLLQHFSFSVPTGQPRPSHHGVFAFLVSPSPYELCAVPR
Source text: (§1) In order to evaluate excretion, we examined the effect on the activity of two cytochrome P-450 isoforms. Inhibition of their activity may lead to the occurrence of drug–drug interactions.

CYP3A4 = molecular target: T3, CYP3A4 (Homo sapiens, UniProt P08684); assay: P450-Glo assay, CYP3A4; format: in vitro ADME
T3 construct: purchased Promega
T3 sequence (P08684 whole entry): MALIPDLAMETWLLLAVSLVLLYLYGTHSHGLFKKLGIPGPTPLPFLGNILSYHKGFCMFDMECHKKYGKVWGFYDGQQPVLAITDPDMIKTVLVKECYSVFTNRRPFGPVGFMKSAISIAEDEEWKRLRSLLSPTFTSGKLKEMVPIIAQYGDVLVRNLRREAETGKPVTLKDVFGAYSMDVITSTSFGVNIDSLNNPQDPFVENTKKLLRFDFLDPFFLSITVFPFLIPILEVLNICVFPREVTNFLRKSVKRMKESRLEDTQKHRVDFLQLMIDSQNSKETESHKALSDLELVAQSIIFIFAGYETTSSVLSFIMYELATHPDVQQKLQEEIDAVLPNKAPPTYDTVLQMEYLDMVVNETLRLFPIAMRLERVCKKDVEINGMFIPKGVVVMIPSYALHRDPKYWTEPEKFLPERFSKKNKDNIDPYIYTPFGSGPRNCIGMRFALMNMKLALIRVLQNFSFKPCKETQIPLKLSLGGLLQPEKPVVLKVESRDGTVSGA
Source text: as §1

Danio rerio [1] = details: in vivo
Experimental: (§2) Two compounds, PP 10 and PP 15, were tested for cardiotoxicity in the Danio rerio experimental model (OECD 236 test). […]. To assess potential neurotoxic effects, locomotor activity was examined in the Danio rerio model. Zebrafish larvae’s response to light and dark transitions serves as a useful method for detecting neurotoxicity. […] In our experiment, we switched from light to dark conditions, as zebrafish larvae are known to avoid light and seek darker areas. This behavior helps them evade predators and maintain ideal environmental conditions. […]
Figure 4 A: Toxicity of PP 10 and PP 15in vivo in the Danio reiro embryo toxicity test. […] Cardiotoxicity of compounds B: PP 10 and C: PP 15 was evaluated by measuring the heart rate (beats per minute) in 5-dpf Danio rerio larvae, maintained in the E3 fish embryo growth medium. Statistical analysis was performed using GraphPad Prism 10.0.0, with one-way ANOVA followed by Dunnett’s comparison test (*p < 0.05, compared to the negative control E3). […] | The toxicity of compounds was evaluated using two tests: the fish embryo toxicity (FET) test and neurotoxicity assessment.[53] […] Acute toxicity was assessed by monitoring signs such as coagulation of fertilized eggs, somite formation absence, tailbud separation, and lack of heartbeat. The LD50 value was calculated, and cardiovascular effects were monitored through heartbeat observations.

5-HT7 [2] = molecular target: T4, 5-HT7 (Homo sapiens, UniProt P34969); assay: Functional cAMP assay (LANCE Ultra), 5-HT7; format: cell-based
T4 construct: expressed in transfected cells; host or cells: HEK293
T4 sequence (P34969 whole entry, species assumed): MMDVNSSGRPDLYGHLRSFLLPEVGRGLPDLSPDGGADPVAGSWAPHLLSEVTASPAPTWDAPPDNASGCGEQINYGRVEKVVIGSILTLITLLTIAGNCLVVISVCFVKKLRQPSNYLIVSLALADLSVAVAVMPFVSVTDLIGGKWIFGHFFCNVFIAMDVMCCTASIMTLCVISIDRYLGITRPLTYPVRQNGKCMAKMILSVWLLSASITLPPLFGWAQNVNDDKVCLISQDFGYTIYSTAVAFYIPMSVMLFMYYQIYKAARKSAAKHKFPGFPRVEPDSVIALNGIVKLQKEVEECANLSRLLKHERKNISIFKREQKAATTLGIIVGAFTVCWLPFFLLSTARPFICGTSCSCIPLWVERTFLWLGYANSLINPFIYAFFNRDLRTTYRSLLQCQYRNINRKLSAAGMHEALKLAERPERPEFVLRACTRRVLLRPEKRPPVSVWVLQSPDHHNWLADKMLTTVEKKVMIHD
Experimental: Their functional activity was also evaluated by assessing their ability to inhibit agonist-induced cAMP production in HEK293 cells (Table 3). Extended radioisotope tests were aimed at detecting potential affinity for other aminergic receptors, whose role in cancer treatment may be important. Functions were tested for all receptors. The essence of functional tests results from the fact that serotonin stimulates tumor progression. Therefore, the ligand should have the potential to reduce its concentration, i.e., act as an antagonist.[39]
The detailed procedure is presented in previous publications.[53] The functional activity of the compounds was assessed using the LANCE Ultra cAMP detection kit (PerkinElmer). […] For other receptors (5-HT7R, 5-HT1AR, and 5-HT6R), 5-CT was used at 10, 100, and 1000 nM, respectively. Each compound was tested in triplicate across eight concentrations. The inhibitory constant (Kb) for each antagonist was calculated using the Cheng–Prusoff equation.

Danio rerio [3] = details: in vivo; remark: listed apart in the source
Experimental: as §2
Figure 5 A: In vivo toxicity assessment of PP 10 and PP 15 in Danio rerio using the maximum tolerated concentration (MTC) toxicity test. B: Locomotor activity under light conditions, quantified as the distance (in cm) traveled per minute by 5-day postfertilization (dpf) Danio rerio larvae. C: Locomotor activity under dark conditions, with the distance (in cm) traveled per minute recorded for 5-dpf larvae. D: Comparison of activity during the transition from light to dark conditions. E3 refers to the fish embryo growth medium. […]
A locomotor activity test was conducted on zebrafish larvae ([…]). […] The distance traveled by the larvae was measured in both light and dark conditions using EthoVision XT15 software, and the mean distance per minute was calculated for each condition to assess locomotor activity. […]

[4] = tested on: HSA and AGP in a ratio 24:1; assay: TRANSILXL PPB plasma protein binding assay; details: Figures S149, S150
5-HT7 [5] = molecular target: T4, 5-HT7; assay: Functional cAMP assay (LANCE Ultra), 5-HT7; format: cell-based; details: Table 3, unit inferred, agonist mode
cancer cell lines = assay: Antiproliferative activity over the tested cancer cell lines; format: cell-based; details: Homo sapiens; range or bound over several cell lines
Experimental: The chosen group of ligands was further examined for their ability to inhibit proliferation across multiple cancer cell lines related to the CNS system (1321N1, U87MG, LN-229, and U-251). These cell lines were characterized by different mutation profiles, the main one being the variable status of the p53 protein. In detail, U87MG cells have a wild-type p53 protein, while astrocytoma and the rest of GBM cells harbor mutated p53 protein. Additional assays were performed on MCF7 breast cancer and AsPC-1 pancreatic cancer cells. The wide range of tested lines was aimed at screening the anticancer potential of the tested compounds. The first represents one of the most common and the second one of the most aggressive cancers in the world. Comparing the activity of compounds on GBM cells to other types of cancer may reveal their selectivity and usefulness in targeted therapies. The cytotoxicity of the compounds on normal human astrocytes (NHA) and Feline catus astrocyte (PG-4) was determined. Tests on normal lines serve to verify the potential toxicity of the tested compounds on healthy cells. Due to the targeting of CNS tumors, astrocytes were selected as normal lines.
The detailed procedure is presented in previous publications.[53] […] Cell viability was assessed using the MTS assay, and the inhibitory concentration (IC50) was calculated using GraphPad Prism 8.0. […]

T1 sequence (P50406 whole entry): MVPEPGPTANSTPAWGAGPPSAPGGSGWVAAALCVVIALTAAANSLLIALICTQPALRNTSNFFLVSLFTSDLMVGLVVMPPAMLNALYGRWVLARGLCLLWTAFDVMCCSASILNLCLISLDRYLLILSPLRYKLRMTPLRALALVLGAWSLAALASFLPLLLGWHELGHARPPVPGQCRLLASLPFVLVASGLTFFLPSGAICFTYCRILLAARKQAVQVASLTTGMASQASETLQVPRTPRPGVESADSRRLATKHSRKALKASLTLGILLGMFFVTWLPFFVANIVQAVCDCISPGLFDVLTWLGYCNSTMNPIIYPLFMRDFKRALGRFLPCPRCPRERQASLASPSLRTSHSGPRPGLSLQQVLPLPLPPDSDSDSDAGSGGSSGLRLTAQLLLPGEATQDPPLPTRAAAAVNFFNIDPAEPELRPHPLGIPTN

EC50 (5-HT6) [nM] | amount remaining after incubation with human plasma proteins (UPLC) [4] | Compound | impact on the activity of CYP2D6 (CYP2D6) | impact on the activity of CYP3A4 (CYP3A4) | cardiotoxic effects (heart rate) (Danio rerio [1]) | neurotoxic effects (locomotor activity, light to dark) (Danio rerio [3]) | other results
488 | COMPOUND NOT DETECTED | CC1NC(NCCCCCCNS(=O)(=O)c2c(Cl)ccc3ccccc23)=Nc2ccccc21 (stereo not shown) [PP 13, 2-Chloro-N-{6-[(4-methyl-3,4-dihydroquinazolin-2-yl)amino]hexyl}naphthalene-1-sulfonamide] | – | – | – | – | EC50 (5-HT7 [5]): 53 nM
– | COMPOUND NOT DETECTED | O=S1(=O)c2cccc3cccc(c23)N1CCCCCCNC1=Nc2ccccc2CN1 [PP 24, 3-{6-[(3,4-Dihydroquinazolin-2-yl)amino]hexyl}-2λ^6-thia-3-azatricyclo[6.3.1.0^4,^12]dodeca-1(11),4(12),5,7,9-pentaene-2,2-dione] | – | – | – | – | IC50 (cancer cell lines): 7400 to 18300 nM

The remaining lines, values behind:

Compound | EC50 (5-HT6) [nM] | amount remaining after incubation with human plasma proteins (UPLC) [4] | impact on the activity of CYP2D6 (CYP2D6) | impact on the activity of CYP3A4 (CYP3A4) | cardiotoxic effects (heart rate) (Danio rerio [1]) | neurotoxic effects (locomotor activity, light to dark) (Danio rerio [3]) | other results
O=S(=O)(c1cccc2ccccc12)N1CCN(CCNC2=Nc3ccccc3CN2)CC1 [PP 6, N-{2-[4-(Naphthalene-1-sulfonyl)piperazin-1-yl]ethyl}-3,4-dihydroquinazolin-2-amine] | 367 | – | – | – | – | – | –
CC1NC(NCCCCCCNS(=O)(=O)c2cccc3ccccc23)=Nc2ccccc21 (stereo not shown) [PP 10, N-{6-[(4-Methyl-3,4-dihydroquinazolin-2-yl)amino]hexyl}naphthalene-1-sulfonamide] | – | – | strong effect at a concentration of 1 μM | weakest interaction | Neither compound displayed cardiotoxic effects | minimal neurotoxic effects | Kb (5-HT7 [2]; Table 3, unit inferred, cAMP, antagonist mode, 5-CT): 236 nM; function at 5-HT7 (5-HT7 [2]; in words): antagonist
O=S(=O)(NCCCCCCNc1ncc2ccccc2n1)c1cccc2ccccc12 [PP 15, N-{6-[(Quinazolin-2-yl)amino]hexyl}naphthalene-1-sulfonamide] | – | – | passive | passive | Neither compound displayed cardiotoxic effects | minimal neurotoxic effects | –
